# Results: patent US11951171B2, “Polypeptide EXP and its drug delivery system as well as extracellular vesicle extraction” (TIANJIN MEDICAL UNIVERSITY, priority 2019, dated 2024)
# Legend:
# [1] = tested on: exosome from differentiated muscle cells C2C12(dC2C12); test: Flow cytometry binding of FAM-labeled peptides to exosome; parameters: species or system murine
# Experimental: The FAM-labeled peptides EXP, CP05, 39880, 39881 were respectively co-incubated with exosome from differentiated muscle cells C2C12(dC2C12), and the binding efficiency of different polypeptides with exosome was detected by flow cytometry.
# Each sign in the figure represents the detection results of the following sequences: EXO represents exosomes derived from murine myotubes; CP05 represents the polypeptide which is recorded in the prior art Chinese patent No. CN201510520565.7; EXP represents the polypeptide of the present invention (SEQ ID NO.1). 39880 and 399881 respectively represent two other variants of CP05. (A) Flow cytometry to detected the binding efficiency of different peptides with exosomes. […] (B) Flow cytometry to detected the capacity to enter cells of different peptides mediated by exosome. The equivalent amount FAM-labeled polypeptides were incubated with exosome derived from dC2C12 and added into C2C12 cells, and the capacity of enter cells was detected 24 hours later. It's shown by the results that 65.6% of EXO-EXP entered cells whose capacity is highest. (C) Quantitative analysis of different peptides entering cells mediated by exosome. […] (D) the binding efficiency of different amount gradients of CP05 and EXP to the equivalent amount of exosomes was detected by Flow cytometry to. Different amounts of EXP and CP05(0.03 μg, […], 0.3 μg) were co-incubated with exosomes (10 μg), and their binding efficiency was compared by flow cytometry.
# 1.1 Flow cytometry is used to detect the binding capacity of EXP and other peptides to exosome. • (1) FAM-labeled CP05 and other peptides respectively with amount of […] were mixed with exosome from different source like dC2C12, CDC and serum respectively with amount of […], and DPBS is used to make up a deficiency to 200 μl in volume with. • (2) The mixture prepared as described in (1) was incubated at 4° C. for 2-4 hrs under rotation in vertical shaker. • (3) the binding efficiency was detected with flow cytometry.
# exosomes = test: Competitive binding of CP05 and EXP to exosomes (flow cytometry); details: peptide alone with exosomes (FIG. 3A, first line)
# Experimental: AF750 (APC-Cy7)-labeled CP05 and FAM-labeled CP05 or EXP were co-incubated with exosomes at ratios of 1:1 or 1:5 (mass ratio), and the binding efficiency was detected with flow cytometry. It's shown by the results that when EXP and CP05 were incubated with exosomes at the same time, EXP could compete with CP05 to combine with exosomes, thus reducing the binding efficiency of CP05 and exosomes. (A) Flow cytometry to detect the binding efficiency of EXP or CP05 to exosomes. EXO was used as negative control; EXOCP05 is the binding efficiency of CP05 (FAM, af750) separately labeled by different fluorescence labeling with exosomes. EXOEXP is the binding efficiency of FAM labeled EXP andexosomes. 1:1, 1:5, 1:10 means different mass ratios of AF750 and FAM-EXP/FAM-CP05 are respectively as 1:1, 1:5, 1:10. It's shown by the results of flow cytometryto that the binding efficiency of CP05 alone with EXO was about 70%, while that of EXP and exosomes was 91.5% (flow cytometry to chart: the first line). […] However, it's found by comparing different fluorescence CP05 molecules (flow cytometry to chart: the third line) that, the binding efficiency of EXOCP05 (AF750) remained unchanged with increasing the mass ratio of FAM-CP05. […] Different fluorescence-labeled CP05 (APC-Cy7, FAM) were co-incubated with exosomes, their binding efficiency is detected with flow cytometry. […]
# [2] = tested on: exosomes recovered by EXP; test: Binding efficiency of CP05 and EXP with serum exosomes recovered by EXP; details: serum exosomes recovered by EXP (FIG. 6E)
# [3] = tested on: exosomes derived from murine myotubes(EXOmyotube), cardiac sphere cells (CDC) (EXOCDC) and human serum (EXOserum); test: Binding efficiency with exosomes from different sources (flow cytometry)
# Experimental: FAM-labeled CP05 or EXP was co-incubated with exosomes derived from murine myotubes(EXOmyotube), cardiac sphere cells (CDC) (EXOCDC) and human serum (EXOserum), and the binding efficiency was detected with flow cytometry. It's shown by the results that the binding efficiency of CP05 to exosomes from different sources is about 70%, and the binding efficiency of the same amount of EXP with exosomes from corresponding sources was about 90%.
# Experimental example 5: Comparison on binding efficiency of EXP and exosomes from different sources. • (1) 0.06 μg FAM-labeled CP05 and 0.06 μg of different peptides were respectively mixed with 10 μg exosome from dC2C12, CDC, serum, and DPBS was used to make up a deficiency to 200 μl. • (2) The mixture was incubated for 2-4 hrs at 4° C. under rotation in vertical shaker. • (3) The binding efficiency was detected with flow cytometry.
sequence,measurement,setting,value
CRHKMWTVKSRL (EXP),"binding efficiency with exosome under different amount gradients, compared with CP05","[1]; 0.03 μg, 0.06 g, 0.3 μg peptide co-incubated with exosomes (10 μg), FIG. 1D",all higher than that of CP05
same,binding efficiency to exosomes,"[1]; FAM-labeled peptide co-incubated with exosome from dC2C12, flow cytometry (FIG. 1A)",up to 95.5%
same,binding efficiency of EXP with exosomes compared to CP05,[1]; under the same conditions,about 2 times
same,binding efficiency of peptide alone with EXO,exosomes,91.5%
same,binding efficiency with recovered exosomes,[2],95.9%
same,binding efficiency to exosomes from serum compared with CP05,[3]; exosomes from serum,significantly higher than that of CP05
same,binding efficiency to exosomes from different sources,"[3]; same amount of FAM-labeled peptide, EXOmyotube, EXOCDC, EXOserum",about 90%
